Legend:
[1] = Cytotoxicity against HONE1, CCK-8 method; format: cell-based, human; settings: CCK-8, OD at 450 nm, 72 h, average values of three parallel experiments
Protocol: (§1) The THP-1, HONE1, and HONE1-EBV cell lines were obtained from Sun Yat-sen University Cancer Center. The cytotoxic activity was determined by the CCK-8 (Dojindo) method. Briefly, THP-1, HONE1, and HONE1-EBV cells were cultured in DMEM media supplemented with 10% […] (FBS), respectively. The cells were seeded at a density of 400 to 800 cells/well in 384-well plates and then incubated with the compounds in a gradient concentration (50.0, 10.0, 2.0, 0.4, and 0.08 μM) or with a solvent control for 72 h, followed by the addition of CCK-8 reagent. The OD value of each well was measured at 450 nm using a SpectraMax M5 Microplate Reader (Molecular Devices). Sorafenib functioned as the positive control. Dose–response curves were plotted to determine IC50 based upon the average values of three parallel experiments using Prism 5.0.

acetylcholinesterase = acetylcholinesterase (Homo sapiens, UniProt P22303); experiment: AChE inhibition, modified Ellman's method; format: biochemical
Sequence of acetylcholinesterase (P22303 32-614): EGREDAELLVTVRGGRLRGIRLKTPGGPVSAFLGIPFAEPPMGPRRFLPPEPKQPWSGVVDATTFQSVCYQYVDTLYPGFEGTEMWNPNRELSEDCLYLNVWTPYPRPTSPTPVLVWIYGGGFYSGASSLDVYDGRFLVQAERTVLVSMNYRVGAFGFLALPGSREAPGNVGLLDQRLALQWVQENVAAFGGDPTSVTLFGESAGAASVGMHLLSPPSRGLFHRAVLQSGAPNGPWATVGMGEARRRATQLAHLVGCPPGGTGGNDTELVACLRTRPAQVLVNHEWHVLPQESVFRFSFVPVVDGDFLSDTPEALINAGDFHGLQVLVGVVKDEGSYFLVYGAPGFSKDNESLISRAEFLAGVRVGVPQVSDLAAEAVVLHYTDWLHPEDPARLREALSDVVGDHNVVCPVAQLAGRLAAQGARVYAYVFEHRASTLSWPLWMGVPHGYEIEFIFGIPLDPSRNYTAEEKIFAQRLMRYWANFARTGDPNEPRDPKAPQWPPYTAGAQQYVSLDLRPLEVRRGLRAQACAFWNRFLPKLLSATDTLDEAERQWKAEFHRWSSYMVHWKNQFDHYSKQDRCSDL
Protocol: The AChE inhibition activity was measured based on the modified Ellman’s method. Tacrine was used as positive drug. The inhibition rates of AChE were calculated using Origin 8.0 software.

[2] = Cytotoxicity against HONE1-EBV, CCK-8 method; format: cell-based, human; settings: CCK-8, OD at 450 nm, 72 h, average values of three parallel experiments
Protocol: as §1

CCCCCCCC[C@H](C)[C@@H]1CC(=O)NCC(=O)N[C@@H](C(C)C)C(=O)N[C@H](CC(C)C)C(=O)N[C@@H](C)C(=O)N[C@@H](C(C)C)C(=O)O1 [Compound 4, Scopularide I]
IC50 [1]: 13 µM
IC50 (acetylcholinesterase): 15.6 µM
IC50 [2]: 10.1 µM

From paper PMC8703611, “Cyclic Peptides from the Soft Coral-Derived Fungus Aspergillus sclerotiorum SCSIO 41031” (Marine Drugs, 2021)
